Columns and labels:
ISO injected rats = assay: Isoproterenol (ISO) induced cardiac injury model; format: in vivo, rat
Procedure: During the yet another study conducted to assess the cardioprotective effect of vitamin K2-7, inventors of the current invention observe that the vitamin K2-7 improves the cardiac output parameters. Isoproterenol (ISO) induced cardiac injury model was selected for the study. It was observed that ISO induced cardiac output decrease in all the dose levels i.e. at 90 μg/kg, 450 μg/kg and 900 μg/kg. […] This effects was non-linear and was enhanced in 900 μg/kg dose.
Effect of vitamin K2-7 on the left cardiac work has been evaluated in the same study. It was observed that administration of ISO leads to marked decrease in left cardiac work when measured 48 h after ISO injection in comparison to pre ISO level i.e. control.
In the same study it was also observed that vitamin K2-7 enhances the High Density Lipoprotein (HDL) level in all the dose levels studied i.e. at 90 μg/kg, 450 μg/kg and 900 μg/kg. Isoproterenol (ISO) induced cardiac injury model was selected for the study. […] HDL cholesterol level for the treated group increased in comparison to the ISO controlled group. The observed increase was greater with respect to the dose level increased.

rats = assay: Chronic toxicity study, ECG of rats; format: in vivo; details: rat ECG
Text: In another study on animal model during chronic toxicity study, it was discovered that MK-7 produces significant changes in ECG of rats. This discovery during basic pharmacology studies on MK-7 was investigated for its effect on Cardio Vascular System. It is during this study the investigator discovered the following findings (FIGS. 5 and 6).
The main parameter which was observed during chronic toxicity studies in rat ECG was the prolongation of QT interval.

healthy male volunteers = assay: ANS activity (sympathovagal balance) measured by ANSiscope in healthy male volunteers; format: in vivo, human; details: for general and systemic examination, Blood Pressure (Supine), pulse: 350 μg per day, 2 months; for percentage of ANS dysfunction / stage of ANS dysfunction: 1 cap per day of 350 μg, end of 2 months
Procedure: […] ANS activity was measured and printed out in a graph form by the ANSiscope™, manufactured by DyAnsys a US based company. The instrument is US FDA approved patented instrument. This instrument assessed the autonomic function by calculating 500 Heart beats/RR intervals. After assessing this, the instrument will analyze the level of the dysfunction and the degree of autonomic neuropathy. For this reason they have classified autonomic dysfunction in 5 stages, namely Healthy (H), Early (E), Late (L), Advanced (A) and Most Advanced (MA). The percentage calculation values demarcating groups are: −11.5% to 11.5%: healthy group, 13.5% to 20%: early group, 23% to 50.99%: late group, 51% to 100%: advanced group and above falls in Most advance group.
The study parameters assessed were sympathetic and parasympathetic tone, change in blood pressure (orthostatic intolerance, measured at right. brachial artery), pulse (assessed by measuring the pulse at right. radial artery) and physical and general examination. Study was performed on subjects in relaxed supine position without any external stimulation, usually 2 hrs. after breakfast during morning time for 2 consecutive months.
Subjects who have Blood pressure beyond the range of 140/90 (supine) and 100/70 (standing) mm Hg, and Sugar Fasting more than 250 mg % and with any major illness are ruled out of study. All subjects were checked for baseline parameters on 0 day. Vitamin K2-7 (MK-7) in dose of 350 μg was administered on 3rd day after the baseline reading. MK-7 was continued for 2 months. Readings were taken on 3rd day, 15th day, 28st day, 50th day, 56th day and at 62nd day.

Question: `CC(C)=CCC/C(C)=C/CC/C(C)=C/CC/C(C)=C/CC/C(C)=C/CC/C(C)=C/CC/C(C)=C/CC1=C(C)C(=O)c2ccccc2C1=O` [MK-7] was tested. Which “ISO induced cardiac output decrease” value (ISO injected rats; 90 μg/kg and 450 μg/kg) did it give?
Answer: reversed

Question: And the “ISO induced cardiac output decrease” value (ISO injected rats; 900 μg/kg)?
Answer: enhanced

Question: And the “ISO induced left cardiac work decrease, reversal” value (ISO injected rats; 900 μg/kg vs other treatment groups)?
Answer: higher than other treatment groups

Question: What about the “ISO induced left cardiac work decrease” value (ISO injected rats; 90, 450 and 900 μg/kg, 48 h after ISO injection, vs ISO control) of the same molecule?
Answer: reversed to a great extent

Question: What about the HDL cholesterol level (ISO injected rats; 90, 450 and 900 μg/kg, vs ISO control group) of the same molecule?
Answer: increased

Question: What about the blood sugar (ISO injected rats; within 12 days, 90, 450 and 900 μg/kg) of the same molecule?
Answer: reducing blood sugar

Question: What about the PR interval (rats) of the same molecule?
Answer: not affected to significant extent

Question: And the QTc change (rats)?
Answer: moderate non-significant shortening

Question: What about the heart rate (rats) of the same molecule?
Answer: no increase

Question: What about the “prolongation of QTc” value (rats) of the same molecule?
Answer: did not cause any prolongation

Question: And the QT interval (rats; 100, 500, 1000 μg/kg)?
Answer: remained unaffected

Question: What about the QRS interval (rats; 500, 1000 μg/kg) of the same molecule?
Answer: significant shortening

Question: What about the RR interval (rats; 500, 1000 μg/kg) of the same molecule?
Answer: significant prolongation

Question: What about the “other parameters (blood pressure, pulse, physical and general examination)” value (healthy male volunteers; 350 μg for 2 months) of the same molecule?
Answer: remained unaffected

Question: And the “general and systemic examination, Blood Pressure (Supine), pulse” value (healthy male volunteers; person one)?
Answer: in normal range without any change from base line records

Question: And the “general and systemic examination, Blood Pressure (Supine), pulse” value (healthy male volunteers; person two)?
Answer: in normal range without any change from base line records

Question: What about the parasympathetic activity (healthy male volunteers; 350 μg, after 2 months of therapy) of the same molecule?
Answer: little effect

Question: What about the sympathetic activity (healthy male volunteers; 350 μg, after 2 months of therapy, initially elevated) of the same molecule?
Answer: marked normalization

Question: What about the “percentage of ANS dysfunction” value (healthy male volunteers; person one, baseline 61%) of the same molecule?
Answer: 31%

Question: What about the “stage of ANS dysfunction” value (healthy male volunteers; person one, baseline 'Advance stage') of the same molecule?
Answer: Early (13.5% to 20%: early group)

Question: What about the “percentage of ANS dysfunction” value (healthy male volunteers; person two, baseline 25%) of the same molecule?
Answer: 21%

Question: What about the “stage of ANS dysfunction” value (healthy male volunteers; person two, baseline 'Late stage') of the same molecule?
Answer: Early (13.5% to 20%: early group)
